# Test results published in patent US20140045807A2, “THE USE OF 3-METHOXY-PREGNENOLONE FOR THE PREPARATION OF A DRUG FOR TREATING A TRAUMATIC BRAIN INJURY” (priority 2004, published 2014).
# What was measured:
# [1] = system: spinal cord compression in rats; experiment: Spinal cord compression model, locomotor recovery (BBB score); format: in vivo, rat; conditions: 12 mg/kg/day subcutaneous for 2 weeks; as of post-operation day 7
# Method: FIG. 7: Effect of molecule 43B on locomotor recovery following spinal cord compression in rats. Animal locomotion was evaluated in a blind format during the 1-28 day post-operative period using the BBB score which evaluates the degree of paralysis (higher values correspond to better recovery). Statistical significance: * indicates p<0.001; ** indicates p<0.0001.
# To determine the neuroprotective effects of the molecules tested, a spinal cord compression model is used. This model involves the total paralysis of the animals in the first few days following the operation. This period of paralysis is followed of a phase of approximately three weeks during which the animals partially recover their motor function. The study of this recovery using a simple and precise functional test based on observation of the animals (the BBB score) makes it possible to study the speed and the degree of recovery of the animals, with and without treatment.
# Two groups of rats were subjected to spinal cord compression. Then, daily for 2 weeks, the animals received a subcutaneous injection containing either sesame oil alone (control group, n=20), or sesame oil containing molecule 43B (43B group, n=20; 12 mg/kg/day). The first injection was given minutes after spinal cord compression. Locomotion of the animals, using BBB scores, was evaluated in a blind format on post-operation days 1, 4, 7, 14, 21, and 28. […]
# PC12 cells = experiment: Retraction of neurites induced by nocodazole; format: cell-based, rat; conditions: pretreated one hour at 30 μM, nocodazole 15 minutes
# Text: FIG. 5: Retraction of neurites (neurites) induced by nocodazole.
# Nocodazole is a microtubule depolymerizing agent. Its addition to PC12 cell cultures, differentiated in the presence of NGF, causes neurites to retract as a result of the depolymerization of their microtubules.
# GAP43 = experiment: Western blot of GAP43 in cortex and hippocampus after CCI; format: in vivo, rat; conditions: first injection 2 h post-trauma, day 35, injured cortex (20 mg/kg only), hippocampus and non-injured cortex (both doses)
# Method: FIG. 23: GAP43 expression, 35 days after TBI, in the left-uninjured and right-injured hemispheres (A: cortex and B: hippocampus) of CCI-injured animals, receiving either vehicle (D0) or MAP4343 (D1: 10 mg/kg and D2: 20 mg/kg), 2 h after injury.
# Samples were analyzed by Western-blot at day 35 post-trauma (D35) to evaluate the effects of MAP4343 on: MAP2 (the target of MAP4343 and a modulator of microtubule function), the post-synaptic markers PSD95 and spinophilin, the pre-synaptic marker synaptophysin, and the axonal growth/integrity marker GAP43.
# Western blot was performed on cortex and hippocampus of TBI-injured animals receiving the first injection of MAP4343 (at 10 mg/kg or 20 mg/kg) or vehicle (sesame oil) 2 h after injury.
# The expression level of various neuronal brain markers of plasticity was measured at day 35 post-trauma by western-blots in the cortex and hippocampus of left uninjured and right injured cerebral hemispheres of CCI traumatized animals receiving either vehicle (sesame oil, CCI-D0) or 3-methoxy-PREG (MAP4343) at 10 mg/kg (CCI-D1) or 20 mg/kg (CCI-D2), with first MAP4343 injection 2 h post-trauma.
# [2] = biological target: T1, human progesterone receptor(PR) (Homo sapiens, UniProt P06401); experiment: Test of progesterone receptor antagonist activity (luciferase transactivation, HEK293T); format: cell-based; conditions: with progesterone (1 nM), increasing amounts
# T1 construct: expressed in transfected cells; host or cells: HEK293T
# T1 sequence (P06401 1-933): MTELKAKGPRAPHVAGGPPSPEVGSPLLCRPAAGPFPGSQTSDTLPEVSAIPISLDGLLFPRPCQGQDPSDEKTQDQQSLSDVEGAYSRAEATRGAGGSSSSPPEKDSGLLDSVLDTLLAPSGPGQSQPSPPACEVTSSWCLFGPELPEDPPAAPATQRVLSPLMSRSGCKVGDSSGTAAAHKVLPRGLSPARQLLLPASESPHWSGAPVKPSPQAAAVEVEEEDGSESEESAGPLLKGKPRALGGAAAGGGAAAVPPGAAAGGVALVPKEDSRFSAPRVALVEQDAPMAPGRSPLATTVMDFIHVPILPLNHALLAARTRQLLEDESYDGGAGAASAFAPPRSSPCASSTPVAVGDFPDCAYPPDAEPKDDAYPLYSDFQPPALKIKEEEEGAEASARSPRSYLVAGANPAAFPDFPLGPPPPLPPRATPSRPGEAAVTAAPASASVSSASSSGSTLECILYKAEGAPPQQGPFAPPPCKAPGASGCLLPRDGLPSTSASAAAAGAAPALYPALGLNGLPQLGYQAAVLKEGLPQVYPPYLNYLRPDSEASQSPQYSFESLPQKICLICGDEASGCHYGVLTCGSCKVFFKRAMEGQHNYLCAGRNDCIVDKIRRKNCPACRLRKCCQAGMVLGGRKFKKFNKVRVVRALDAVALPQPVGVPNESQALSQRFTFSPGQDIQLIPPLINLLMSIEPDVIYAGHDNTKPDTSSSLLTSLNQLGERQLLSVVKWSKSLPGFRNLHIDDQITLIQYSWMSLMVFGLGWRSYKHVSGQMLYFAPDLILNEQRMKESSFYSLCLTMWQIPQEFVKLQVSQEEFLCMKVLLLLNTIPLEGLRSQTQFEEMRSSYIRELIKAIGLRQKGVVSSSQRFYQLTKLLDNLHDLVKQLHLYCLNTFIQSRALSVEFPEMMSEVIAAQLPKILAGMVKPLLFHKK
# Method: The main experimental setting used is the following: HEK293T cells were transiently transfected, using calcium phosphate precipitation technology, with expression vectors pSG5hPR (which permits expression of human progesterone receptor(PR)), pFC31-luc (contains the luciferase gene under the control of the MMTV promoter, which is in turn activated by binding of a progestin to progesterone receptor) and pcbetagal (which permits expression of betagalactosidase), and cultured during 24 hours with increasing amounts of various compositions: • 1. […] Test of progesterone receptor […] activity: transfected cells were cultured with progesterone (1 nM) and increasing amounts of RU486 (a well-known progesterone receptor antagonist) or 3-methoxy-pregnenolone. • With this setting, a compound with progesterone receptor antagonist activity competes with progesterone for the occupation of progesterone receptor and results in a progressive loss of transactivation activity when the amount of this compound is increased compared to progesterone.
# PC12 cell line = experiment: Cellular toxicity test; format: cell-based, rat; conditions: concentrations as high as solubility limits (approximately 50 μM)
# Method: Cellular toxicity tests are carried out routinely on the PC12 cell line.
structure (smiles),measurement,setting,value
"CO[C@H]1CC[C@@]2(C)C(=CC[C@H]3[C@@H]4CC[C@H](C(C)=O)[C@@]4(C)CC[C@@H]32)C1 [3-methoxy-PREG, 3β-methoxy-pregna-5-ene-20-one]",BBB score (locomotion),[1],quite significantly higher than the control animals
same,resistance of neurites to nocodazole,PC12 cells,makes the neurites resistant to nocodazole
same,GAP-43 expression,GAP43,increased GAP-43 expression
same,progesterone receptor antagonist activity,[2],weak progesterone receptor antagonist
same,cellular toxicity,PC12 cell line,do not demonstrate toxicity
